# Assay results as given in ChEMBL document CHEMBL4725293, “Synthesis of novel lignan-like compounds and their antimicrobial activity” (Bioorg Med Chem Lett, 2020).
# Calls of active or inactive are those of the source. The rule behind the calls is not given here.
# Tests used:
# Staphylococcus aureus [1] = test: Antibacterial activity against Staphylococcus aureus ATCC 29213 by broth microdilution method; type: functional
# Pseudomonas aeruginosa = test: Antibacterial activity against Pseudomonas aeruginosa ATCC 27853 by broth microdilution method; type: functional
# Staphylococcus aureus [2] = test: Bactericidal activity against Staphylococcus aureus ATCC 29213 at 16 ug/ml measured at 24 hrs by time kill assay (reference value: 5.65 to 9.57); type: functional; conditions: dose 16 µg/ml
# Staphylococcus aureus [3] = test: Bactericidal activity against Staphylococcus aureus ATCC 29213 at 16 ug/ml measured at 6 hrs by time kill assay (reference value: 5.65 to 9.57); type: functional; conditions: dose 16 µg/ml
# Staphylococcus aureus [4] = test: Bactericidal activity against Staphylococcus aureus ATCC 29213 at 16 ug/ml measured at 3 hrs by time kill assay (reference value: 5.65 to 9.57); type: functional; conditions: dose 16 µg/ml
# Staphylococcus aureus [5] = test: Bactericidal activity against Staphylococcus aureus ATCC 29213 at 16 ug/ml measured at 1 hr by time kill assay (reference value: 5.65 to 9.57); type: functional; conditions: dose 16 µg/ml
# Staphylococcus aureus [6] = test: Bactericidal activity against Staphylococcus aureus ATCC 29213 at 16 ug/ml measured at 0 hrs by time kill assay (reference value: 5.65 to 9.57); type: functional; conditions: dose 16 µg/ml
# [7] = test system: Staphylococcus epidermidis; test: Antibacterial activity against Staphylococcus epidermidis ATCC 35984 by broth microdilution method; type: functional
# Candida albicans = test: […] activity against Candida albicans ATCC 90028 by broth microdilution method; type: functional
# [8] = test system: Staphylococcus epidermidis; test: Inhibition of biofilm formation in Staphylococcus epidermidis ATCC 35984 at 64 ug/ml by crystal violet staining based assay relative to control; type: functional
# [9] = test system: Staphylococcus epidermidis; test: Inhibition of biofilm formation in Staphylococcus epidermidis ATCC 35984 at 8 to 32 ug/ml by crystal violet staining based assay relative to control; type: functional, organism-based; conditions: dose microg/ml 8-32
# [10] = test system: Staphylococcus epidermidis; test: Induction of preformed biofilm disruption in Staphylococcus epidermidis ATCC 35984 at 64 ug/ml by crystal violet staining based assay relative to control; type: functional; conditions: dose 64.0 µg/ml
# [11] = Cytotoxicity against human HaCaT cells assessed as reduction in cell viability at 16 ug/ml incubated for 24 hrs by MTT assay; type: cell-based; conditions: at 16 µg/mL, read-out: INH
# Staphylococcus aureus [12] = test: Bactericidal activity against Staphylococcus aureus ATCC 29213 at 32 ug/ml measured at 0 hrs by time kill assay (reference value: 5.65 to 9.57); type: functional; conditions: dose 32 µg/ml
# Staphylococcus aureus [13] = test: Bactericidal activity against Staphylococcus aureus ATCC 29213 at 32 ug/ml measured at 1 hr by time kill assay (reference value: 5.65 to 9.57); type: functional; conditions: dose 32 µg/ml
# Staphylococcus aureus [14] = test: Bactericidal activity against Staphylococcus aureus ATCC 29213 at 32 ug/ml measured at 3 hrs by time kill assay (reference value: 5.65 to 9.57); type: functional; conditions: dose 32 µg/ml
# Staphylococcus aureus [15] = test: Bactericidal activity against Staphylococcus aureus ATCC 29213 at 32 ug/ml measured at 6 hrs by time kill assay (reference value: 5.65 to 9.57); type: functional; conditions: dose 32 µg/ml
# Staphylococcus aureus [16] = test: Bactericidal activity against Staphylococcus aureus ATCC 29213 at 32 ug/ml measured at 24 hrs by time kill assay (reference value: 5.65 to 9.57); type: functional; conditions: dose 32 µg/ml
# [17] = Cytotoxicity against human HaCaT cells assessed as reduction in cell viability at 32 ug/ml incubated for 24 hrs by MTT assay; type: cell-based; conditions: at 32 µg/mL, read-out: INH
smiles,measurement,setting,value
Oc1ccc(Cc2cocc2Cc2ccccc2O)cc1,MIC,Staphylococcus aureus [1],64 µg/mL
same,MIC,Pseudomonas aeruginosa,> 128 µg/mL
COc1ccc(CC2=C(Cc3ccc(OC)cc3)C(O)OC2=O)cc1 (configuration not stated),MIC,Staphylococcus aureus [1],> 128 µg/mL
same,MIC,Pseudomonas aeruginosa,> 128 µg/mL
COc1ccc(Cc2cocc2Cc2ccccc2O)cc1,Activity,Staphylococcus aureus [2],1.56 log10CFU/ml
same,Activity,Staphylococcus aureus [3],1.61 log10CFU/ml
same,Activity,Staphylococcus aureus [4],1.94 log10CFU/ml
same,Activity,Staphylococcus aureus [5],2.47 log10CFU/ml
same,Activity,Staphylococcus aureus [6],5.7 log10CFU/ml
same,MIC,Staphylococcus aureus [1],16 µg/mL
same,MIC,Pseudomonas aeruginosa,> 128 µg/mL
COc1ccc(CC2C(=O)OC3OC32Cc2ccc(OC)cc2)cc1 (configuration not stated),MIC,Staphylococcus aureus [1],> 128 µg/mL
same,MIC,Pseudomonas aeruginosa,> 128 µg/mL
COc1ccc(CC23OC2OC2OC23Cc2ccc(OC)cc2)cc1 (configuration not stated),MIC,Staphylococcus aureus [1],> 128 µg/mL
same,MIC,Pseudomonas aeruginosa,> 128 µg/mL
COc1ccc(Cc2cocc2Cc2ccc(O)cc2)cc1,Activity,Staphylococcus aureus [2],1.24 log10CFU/ml
same,Activity,Staphylococcus aureus [3],1.35 log10CFU/ml
same,Activity,Staphylococcus aureus [4],1.6 log10CFU/ml
same,Activity,Staphylococcus aureus [5],2.2 log10CFU/ml
same,Activity,Staphylococcus aureus [6],5.75 log10CFU/ml
same,MIC,Staphylococcus aureus [1],16 µg/mL
same,MIC,Pseudomonas aeruginosa,> 128 µg/mL
same,MIC,[7],16 µg/mL
same,MIC,Candida albicans,16 µg/mL
same,inhibition at 64 µg/mL,[8],33%
same,inhibition,[9],inactive
same,inhibition,[10],25%
same,"cytotoxicity at 24 h, 16 ug/ml",[11],50%
O=C1OC(O)C(Cc2ccc(O)cc2)=C1Cc1ccc(O)cc1 (configuration not stated),MIC,Staphylococcus aureus [1],> 128 µg/mL
same,MIC,Pseudomonas aeruginosa,> 128 µg/mL
C[C@@H]1[C@H](O)[C@@H](C)/C=C/C=C/C=C/C=C/C=C/C=C/C=C/[C@H](O[C@@H]2O[C@H](C)[C@@H](O)[C@H](N)[C@@H]2O)C[C@@H]2O[C@](O)(C[C@@H](O)C[C@@H](O)[C@H](O)CC[C@@H](O)C[C@@H](O)CC(=O)O[C@H]1C)C[C@H](O)[C@H]2C(=O)O [AMPHOTERICIN B],MIC,Candida albicans,0.25 µg/mL
COc1ccc(Cc2cocc2Cc2ccccc2OC)cc1,MIC,Staphylococcus aureus [1],> 128 µg/mL
same,MIC,Pseudomonas aeruginosa,> 128 µg/mL
Oc1ccc(Cc2cocc2Cc2ccc(O)cc2)cc1,Activity,Staphylococcus aureus [12],5.74 log10CFU/ml
same,MIC,Staphylococcus aureus [1],32 µg/mL
same,MIC,Pseudomonas aeruginosa,> 128 µg/mL
same,Activity,Staphylococcus aureus [13],5.77 log10CFU/ml
same,Activity,Staphylococcus aureus [14],6.38 log10CFU/ml
same,Activity,Staphylococcus aureus [15],7.77 log10CFU/ml
same,Activity,Staphylococcus aureus [16],8.86 log10CFU/ml
same,MIC,[7],32 µg/mL
same,MIC,Candida albicans,32 µg/mL
same,inhibition at 64 µg/mL,[8],33%
same,inhibition,[9],inactive
same,inhibition,[10],25%
same,"cytotoxicity at 24 h, 16 ug/ml",[11],25%
same,"cytotoxicity at 24 h, 32 ug/ml",[17],40%
NC[C@H]1O[C@H](O[C@H]2[C@H](O)[C@@H](O[C@H]3O[C@H](CO)[C@@H](O)[C@H](N)[C@H]3O)[C@H](N)C[C@@H]2N)[C@H](N)C[C@@H]1O [TOBRAMYCIN],MIC,Pseudomonas aeruginosa,4 µg/mL
CC(=O)Oc1ccc(Cc2cocc2Cc2ccc(OC(C)=O)cc2)cc1,MIC,Staphylococcus aureus [1],> 128 µg/mL
same,MIC,Pseudomonas aeruginosa,> 128 µg/mL
COc1ccc(Cc2cocc2Cc2ccc(OC)cc2)cc1,MIC,Staphylococcus aureus [1],> 128 µg/mL
same,MIC,Pseudomonas aeruginosa,> 128 µg/mL
